Measurements as given in ChEMBL document CHEMBL4014321, “Discovery of Pyrazolo[1,5-a]pyrimidine B-Cell Lymphoma 6 (BCL6) Binders and Optimization to High Affinity Macrocyclic Inhibitors” (J Med Chem, 2017).

System: TMD8
Assay: Antiproliferative activity against BCL6 dependent human TMD8 cells after 3 days by CellTiter-Glo assay
Assay type: functional
Settings: TMD8, 72 h

First: O=C1CCc2cc3cc(c2N1Cc1ccncc1)OC/C=C/CO[C@H]1C[C@@H](CO)N(C1)c1cc(n2ncc(Cl)c2n1)N3
Second: O=C1CCc2cc3cc(c2N1CC1CC1)OC/C=C/CO[C@H]1C[C@@H](CO)N(C1)c1cc(n2ncc(Cl)c2n1)N3
The GI50 of the first is 2.5-fold lower: 10 µM for the first, 25.1 µM for the second.

Compared with `O=C1CCc2cc3cc(c2N1)OCCCCO[C@H]1C[C@@H](CO)N(C1)c1cc(n2ncc(Cl)c2n1)N3`, `O=C1CCc2cc3cc(c2N1)OCCCCO[C@H]1C[C@@H](CO)N(C1)c1cc(n2nccc2n1)N3` is 3.2-fold higher in GI50: 3.16 µM for the first, 10 µM for the second.

System: OCI-Ly1
Assay: Antiproliferative activity against BCL6 dependent human OCI-LY1 cells after 3 days by CellTiter-Glo assay
Assay type: functional
Settings: OCI-Ly1, 72 h

Going from `O=C1CCc2cc3cc(c2N1Cc1ccncc1)OC/C=C/CO[C@H]1C[C@@H](CO)N(C1)c1cc(n2ncc(Cl)c2n1)N3` to `O=C1CCc2cc3cc(c2N1CC1CC1)OC/C=C/CO[C@H]1C[C@@H](CO)N(C1)c1cc(n2ncc(Cl)c2n1)N3`, the GI50 rises from 10 µM to over 31.6 µM.

Going from `O=C1CCc2cc3cc(c2N1)OCCCCO[C@H]1C[C@@H](CO)N(C1)c1cc(n2ncc(Cl)c2n1)N3` to `O=C1CCc2cc3cc(c2N1)OCCCCO[C@H]1C[C@@H](CO)N(C1)c1cc(n2nccc2n1)N3`, the GI50 rises from 6.31 µM to 12.6 µM (2-fold).

System: KARPAS-422
Assay: Antiproliferative activity against BCL6 […] human KARPAS422 cells after 3 days by CellTiter-Glo assay
Assay type: functional
Settings: KARPAS-422, 72 h

First: O=C1CCc2cc3cc(c2N1Cc1ccncc1)OC/C=C/CO[C@H]1C[C@@H](CO)N(C1)c1cc(n2ncc(Cl)c2n1)N3
Second: O=C1CCc2cc3cc(c2N1CC1CC1)OC/C=C/CO[C@H]1C[C@@H](CO)N(C1)c1cc(n2ncc(Cl)c2n1)N3
The GI50 of the first is lower: 12.6 µM for the first, over 31.6 µM for the second.

Compared with `O=C1CCc2cc3cc(c2N1)OCCCCO[C@H]1C[C@@H](CO)N(C1)c1cc(n2ncc(Cl)c2n1)N3`, `O=C1CCc2cc3cc(c2N1)OCCCCO[C@H]1C[C@@H](CO)N(C1)c1cc(n2nccc2n1)N3` is 2.5-fold higher in GI50: 5.01 µM for the first, 12.6 µM for the second.

System: U2932
Assay: Antiproliferative activity against BCL6 dependent human U2932 cells after 3 days by CellTiter-Glo assay
Assay type: functional
Settings: U2932, 72 h

`O=C1CCc2cc3cc(c2N1Cc1ccncc1)OC/C=C/CO[C@H]1C[C@@H](CO)N(C1)c1cc(n2ncc(Cl)c2n1)N3` and `O=C1CCc2cc3cc(c2N1CC1CC1)OC/C=C/CO[C@H]1C[C@@H](CO)N(C1)c1cc(n2ncc(Cl)c2n1)N3` are the same in GI50: 10 µM for the first, 10 µM for the second.

First: O=C1CCc2cc3cc(c2N1)OCCCCO[C@H]1C[C@@H](CO)N(C1)c1cc(n2ncc(Cl)c2n1)N3
Second: O=C1CCc2cc3cc(c2N1)OCCCCO[C@H]1C[C@@H](CO)N(C1)c1cc(n2nccc2n1)N3
The GI50 of the first is 3.2-fold lower: 5.01 µM for the first, 15.8 µM for the second.

System: OCI-LY19
Assay: Antiproliferative activity against BCL6 independent human OCI-LY19 cells after 3 days by CellTiter-Glo assay
Assay type: functional
Settings: OCI-LY19, 72 h

`O=C1CCc2cc3cc(c2N1Cc1ccncc1)OC/C=C/CO[C@H]1C[C@@H](CO)N(C1)c1cc(n2ncc(Cl)c2n1)N3` and `O=C1CCc2cc3cc(c2N1CC1CC1)OC/C=C/CO[C@H]1C[C@@H](CO)N(C1)c1cc(n2ncc(Cl)c2n1)N3` are within 1.5-fold of each other in GI50: 12.6 µM for the first, 15.8 µM for the second.

Compared with `O=C1CCc2cc3cc(c2N1)OCCCCO[C@H]1C[C@@H](CO)N(C1)c1cc(n2ncc(Cl)c2n1)N3`, `O=C1CCc2cc3cc(c2N1)OCCCCO[C@H]1C[C@@H](CO)N(C1)c1cc(n2nccc2n1)N3` is 8-fold higher in GI50: 1.58 µM for the first, 12.6 µM for the second.

System: OCI-Ly10
Assay: Antiproliferative activity against BCL6 dependent human OCI-LY10 cells after 3 days by CellTiter-Glo assay
Assay type: functional
Settings: OCI-Ly10, 72 h

Compared with `O=C1CCc2cc3cc(c2N1Cc1ccncc1)OC/C=C/CO[C@H]1C[C@@H](CO)N(C1)c1cc(n2ncc(Cl)c2n1)N3`, `O=C1CCc2cc3cc(c2N1CC1CC1)OC/C=C/CO[C@H]1C[C@@H](CO)N(C1)c1cc(n2ncc(Cl)c2n1)N3` is 2-fold higher in GI50: 10 µM for the first, 20 µM for the second.

First: O=C1CCc2cc3cc(c2N1)OCCCCO[C@H]1C[C@@H](CO)N(C1)c1cc(n2ncc(Cl)c2n1)N3
Second: O=C1CCc2cc3cc(c2N1)OCCCCO[C@H]1C[C@@H](CO)N(C1)c1cc(n2nccc2n1)N3
The GI50 of the first is 5-fold lower: 2.51 µM for the first, 12.6 µM for the second.

System: OCI-Ly3
Assay: Antiproliferative activity against BCL6 dependent human OCI-LY3 cells after 3 days by CellTiter-Glo assay
Assay type: functional
Settings: OCI-Ly3, 72 h

Going from `O=C1CCc2cc3cc(c2N1Cc1ccncc1)OC/C=C/CO[C@H]1C[C@@H](CO)N(C1)c1cc(n2ncc(Cl)c2n1)N3` to `O=C1CCc2cc3cc(c2N1CC1CC1)OC/C=C/CO[C@H]1C[C@@H](CO)N(C1)c1cc(n2ncc(Cl)c2n1)N3`, the GI50 rises from 12.6 µM to over 31.6 µM.

First: O=C1CCc2cc3cc(c2N1)OCCCCO[C@H]1C[C@@H](CO)N(C1)c1cc(n2ncc(Cl)c2n1)N3
Second: O=C1CCc2cc3cc(c2N1)OCCCCO[C@H]1C[C@@H](CO)N(C1)c1cc(n2nccc2n1)N3
The GI50 of the first is 5-fold lower: 3.16 µM for the first, 15.8 µM for the second.

System: SUD4
Assay: Antiproliferative activity against BCL6 dependent human SUDHL4 cells after 3 days by CellTiter-Glo assay
Assay type: functional
Settings: SU-DHL-4, 72 h

First: O=C1CCc2cc3cc(c2N1Cc1ccncc1)OC/C=C/CO[C@H]1C[C@@H](CO)N(C1)c1cc(n2ncc(Cl)c2n1)N3
Second: O=C1CCc2cc3cc(c2N1CC1CC1)OC/C=C/CO[C@H]1C[C@@H](CO)N(C1)c1cc(n2ncc(Cl)c2n1)N3
The GI50 of the first is lower: 10 µM for the first, over 31.6 µM for the second.

Going from `O=C1CCc2cc3cc(c2N1)OCCCCO[C@H]1C[C@@H](CO)N(C1)c1cc(n2ncc(Cl)c2n1)N3` to `O=C1CCc2cc3cc(c2N1)OCCCCO[C@H]1C[C@@H](CO)N(C1)c1cc(n2nccc2n1)N3`, the GI50 rises from 10 µM to 20 µM (2-fold).

System: AMO1
Assay: Antiproliferative activity against BCL6 dependent human AMO1 cells after 3 days by CellTiter-Glo assay
Assay type: functional
Settings: AMO1, 72 h

First: O=C1CCc2cc3cc(c2N1Cc1ccncc1)OC/C=C/CO[C@H]1C[C@@H](CO)N(C1)c1cc(n2ncc(Cl)c2n1)N3
Second: O=C1CCc2cc3cc(c2N1CC1CC1)OC/C=C/CO[C@H]1C[C@@H](CO)N(C1)c1cc(n2ncc(Cl)c2n1)N3
The GI50 of the first is lower: 20 µM for the first, over 31.6 µM for the second.

Going from `O=C1CCc2cc3cc(c2N1)OCCCCO[C@H]1C[C@@H](CO)N(C1)c1cc(n2ncc(Cl)c2n1)N3` to `O=C1CCc2cc3cc(c2N1)OCCCCO[C@H]1C[C@@H](CO)N(C1)c1cc(n2nccc2n1)N3`, the GI50 rises from 3.98 µM to 12.6 µM (3.2-fold).

System: not listed separately
Assay: Inhibition of human CK2 protein
Settings: not given

First: O=C1CCc2cc3cc(c2N1Cc1ccncc1)OC/C=C/CO[C@H]1C[C@@H](CO)N(C1)c1cc(n2ncc(Cl)c2n1)N3
Second: O=C1CCc2cc3cc(c2N1CC1CC1)OC/C=C/CO[C@H]1C[C@@H](CO)N(C1)c1cc(n2ncc(Cl)c2n1)N3
The IC50 of the first is higher: over 10000 nM for the first, 2200 nM for the second.

Compared with `O=C1CCc2cc3cc(c2N1)OCCCCO[C@H]1C[C@@H](CO)N(C1)c1cc(n2ncc(Cl)c2n1)N3`, `O=C1CCc2cc3cc(c2N1)OCCCCO[C@H]1C[C@@H](CO)N(C1)c1cc(n2nccc2n1)N3` is higher in IC50: 1400 nM for the first, over 10000 nM for the second.

System: SU-DHL-2
Assay: Antiproliferative activity against BCL6 dependent human SU-DHL-2 cells after 3 days by CellTiter-Glo assay
Assay type: functional
Settings: SU-DHL-2, 72 h

Going from `O=C1CCc2cc3cc(c2N1Cc1ccncc1)OC/C=C/CO[C@H]1C[C@@H](CO)N(C1)c1cc(n2ncc(Cl)c2n1)N3` to `O=C1CCc2cc3cc(c2N1CC1CC1)OC/C=C/CO[C@H]1C[C@@H](CO)N(C1)c1cc(n2ncc(Cl)c2n1)N3`, the GI50 rises from 7.94 µM to 20 µM (2.5-fold).

Compared with `O=C1CCc2cc3cc(c2N1)OCCCCO[C@H]1C[C@@H](CO)N(C1)c1cc(n2ncc(Cl)c2n1)N3`, `O=C1CCc2cc3cc(c2N1)OCCCCO[C@H]1C[C@@H](CO)N(C1)c1cc(n2nccc2n1)N3` is 2.5-fold higher in GI50: 3.98 µM for the first, 10 µM for the second.
